These are literature values, as cited in patent publication US11013780B2, “Methods of treating female infertility” (Myovant Sciences GmbH, priority 2016, dated 2021).

Where two headings read alike, the source gives them in different places. Where a SMILES comes first, the peptide text is derived from it. [ ]: non-standard residue; d: D form. Arg(Me) = CNC(=N)NCCC[C@H](N)C(=O)O; Hyp = O=C(O)[C@@H]1C[C@@H](O)CN1; azaGly = NNC(=O)O

For series [1] the following is noted: rat, in vivo; cited from earlier work.
For series [2] the following is noted: dog, in vivo; cited from earlier work.

Take `CNC(=N)NCCC[C@H](NC(=O)[C@H](CC(C)C)NC(=O)NNC(=O)[C@H](Cc1ccccc1)NC(=O)[C@@H](NC(=O)[C@H](CC(N)=O)NC(=O)[C@@H]1C[C@@H](O)CN1C(=O)[C@@H](Cc1ccc(O)cc1)NC(C)=O)[C@@H](C)O)C(=O)N[C@@H](Cc1c[nH]c2ccccc12)C(N)=O` [Compound 1, 2-(N-Acetyl-D-tyrosyl-trans-4-hydroxy-L-prolyl-L-asparaginyl-L-threonyl-L-phenylalanyl)-hydrazinocarbonyl-L-leucyl-Nω-methyl-L-arginyl-L-tryptophanamide] (Ac-[dY][Hyp]NTF[azaGly]L[Arg(Me)]W-NH2): the results for the bioavailability in series [1] and in series [2] were 66.3% and 92.4%, respectively.

As usually defined, the bioavailability is dose-corrected exposure relative to a reference, in per cent.
